The values that follow come from US20080085528A1, “G[…] ASSAYS FOR MEASURING KINETIC AND […]” (Bristol-Myers Squibb Company, priority 2006, published 2008).

For orientation: AC50 means the midpoint of the concentration-response curve, whichever way the signal moves. Low readings indicate greater potency, high ones weaker potency.

Format in all cases: biochemical
One experiment deals with T1, human full-length GK (Homo sapiens, UniProt P35557).
T1 construct: human full-length GK (15 nM) was incubated with various concentrations of glucose
T1 sequence (P35557 1-466 isoform P35557-2): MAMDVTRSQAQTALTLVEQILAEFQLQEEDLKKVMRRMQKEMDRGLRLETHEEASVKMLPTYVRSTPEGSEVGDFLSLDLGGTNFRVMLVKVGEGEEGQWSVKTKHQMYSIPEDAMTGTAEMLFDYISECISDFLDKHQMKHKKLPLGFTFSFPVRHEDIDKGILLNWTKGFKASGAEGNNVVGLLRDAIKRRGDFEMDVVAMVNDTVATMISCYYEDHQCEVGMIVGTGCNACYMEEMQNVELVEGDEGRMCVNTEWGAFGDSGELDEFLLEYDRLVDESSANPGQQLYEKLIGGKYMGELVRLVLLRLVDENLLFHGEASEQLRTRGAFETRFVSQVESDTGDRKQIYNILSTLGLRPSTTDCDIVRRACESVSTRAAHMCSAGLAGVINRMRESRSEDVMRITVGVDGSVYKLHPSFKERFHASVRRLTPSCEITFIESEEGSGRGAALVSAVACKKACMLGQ
In words: tandem assay with EDTA quench. As to conditions: 12 mM glucose. How it is done:
The protocol used is essentially as described above with some variation. Briefly, human full-length GK (15 nM) was incubated with various concentrations of glucose in the range from 0.33 to 50 mM in clear bottom 384 well microtiter plates. To initiate the GK reaction, Mg-ATP (3 mM final concentration) was added to the protein in buffer, under the final buffer conditions of 25 mM HEPES, pH 7.1, containing 1 mM DTT and 5% DMSO. The total reaction volume was 20 μl. The reaction was allowed to proceed for ten minutes and was then quenched with 5 μl EDTA (45 mM final).
The components of the secondary reaction, ThioNAD and G6PDH (final concentrations of 650 μM and 3.33 Units, respectively), were then added together in a volume of 25 μl, and a total volume of 50 μl. Absorbance was read and activation calculated as a percentage of background activity, i.e., GK in the presence of DMSO, with background G6P subtracted. Background G6P was determined by pre-quenching GK with EDTA prior to reaction initiation with ATP.
The tandem assay (EDTA quench) was used to assess the activity of GK in the presence of putative GK activator compounds. The above-described tandem assay protocol was followed using a range of activator compound concentrations from 0 to 100 μM.

In experiment [1] the target is T2, human hepatic GK (Homo sapiens, UniProt P35557).
T2 sequence (P35557 1-466 isoform P35557-2): T1 sequence (P35557 1-466 isoform P35557-2)
Nature of the experiment: tandem assay (uncoupled G-6-P detection, heat stop). How it is done: Purified human recombinant GK was used to measure the activation of GK activity by glucose and a GK activator (Compound “C”) in the tandem assay. A suitable vehicle (for instance 24% DMSO in pH 7.25 Tris buffer), with or without (control) a GK modulator of interest was incubated with GK (50 μl of a 24 nM stock solution) over a range of concentrations of glucose (for instance from 0.32 to 80 mM) for 30 minutes in a 96-well PCR plate (10 μl). The GK reaction was initiated by addition of Mg-ATP (20 μl). The solution used comprised 12 mM ATP and 16 mM MgCl2. The final assay conditions were 25 mM Tris, pH 7.25, 1 mM DTT and 3% DMSO, 15 nM GK, 3 mM ATP and 4 mM MgCl2. Glucose stock solution (IM) was diluted to generate a dilution series with final glucose concentrations of: 0.2, 0.4, 0.6, 0.8, 1, 1.5, 2, 3, 4, 5, 6, 8, 10, 12, 20 and 50 mM. The total reaction volume per well was about 80 μl.
The GK reaction proceeded for about 10 minutes, and was followed by heating the 96-well plate in a hot water bath (100° C.) for 30 seconds to stop the reaction. […] An aliquot of reaction mixture (typically 50 μl) was then transferred to a second 96 well plate suitable for taking absorbance measurements. […] The reagents and reaction mixture are mixed for 2 minutes, followed by measurement of the absorbance at 405 nm using a plate reader. […]

In experiment [2] the target is T2, human hepatic GK. Nature of the experiment: filtration-based assay (direct G-6-P capture by ion-exchange resin). The following applies: 12 mM glucose, FIG. 7. The protocol:
Human full-length recombinant GK was used to measure the activation of GK. Human full-length GK (15 nM) was incubated with various concentrations of glucose in the range from 0.33 to 50 mM in the presence of tritiated glucose (3H-glucose [6-^3H], 0.33 μCi) in 96 well microtiter plates. To initiate the GK reaction, Mg-ATP (3 mM final) was added to the protein in buffer, under the final buffer conditions of 25 mM HEPES, pH 7.1, containing 1 mM DTT and 5% DMSO. The total reaction volume was 110 μl. The reaction was allowed to proceed for ten minutes (i.e., the linear portion of the reaction) and was then quenched with 100 mM formic acid (1:1). A 200 μl aliquot of the quenched reaction products was then transferred to wells in a 96-well MultiScreen-GV 96 filtration plate containing 100 μl/well of Bio-rad AG 1-X8 Resin, formate form. The resin was then washed with H2O (1 ml/well), and the GK reaction product (G-6-P) eluted with 1M ammonium formate, pH 5 (200 μl/well). A 50 μl aliquot of this eluate was added to an Optiplate white 96 well plate containing 200 μl of Microscint PS. The plate was sealed and shaken for 5 minutes, and read on a Topcount scintillation counter (Perkin Elmer). The raw counts were converted to product concentration by comparison of the raw counts in the sample wells to wells containing a standard curve having known concentrations of ^3H-glucose-6-phosphate. […]

Consider `CCOP(=O)(Cc1cnc(NC(=O)[C@H](CC2CCCC2)c2ccc(S(C)(=O)=O)cc2)cn1)OCC` [Compound A, (R)-diethyl (5-(3-cyclopentyl-2-(4-(methylsulfonyl)phenyl)propanamido)pyrazin-2-yl)methylphosphonate], for which the AC50 at human full-length GK (FIG. 10) was ~0.904 µM; at human hepatic GK [2], 7.1 µM. Also, the Emax amounted to 208% at human full-length GK (FIG. 10, read-out: maximal activation of background GK activity) and 228% at human hepatic GK [2] (read-out: maximal activation number (above background)). Also, the “Kcat in the presence of GK activator” value at human hepatic GK [1] (20 uM activator, control 3% DMSO) is listed as 44 S^−1. In addition, the “KM compared to the controls” value on human hepatic GK [1] (in the presence of the activator, FIG. 8) is listed as “substantially lower”.
